In patent US20220380341A1, “INHIBITORS OF HIV-1 NEF FOR THE TREATMENT OF HIV DISEASE” (priority 2018, published 2022):
Read-outs that look alike come from different tables or passages of the source.

Key:
[1] = tested on: HIV-1NL4-3; assay: HIV-1 infectivity assay in TZM-bl reporter cell line (LTR-luciferase, 48 h); assay type: cell-based; conditions: Human immunodeficiency virus 1, TZM-bl
Experimental: (§1) In particular, the tables show antiretroviral activity as percent inhibition of HIV-1 infectivity at 1 μM. In brief, this assay uses the TZM-bl reporter cell line, which carries a stable copy of the HIV-1 LTR coupled to luciferase. Cells are infected with HIV-1NL4-3 in the presence and absence of each compound, and luciferase activity is measured 48 h later. This assay measures early events in the HIV-1 life cycle, including viral entry, reverse transcription, nuclear entry and integration, and viral transcription. All assays include control cells infected with Nef-defective HIV-1, which replicates at 30-50% of wild-type in this system. Results are normalized to percent inhibition relative to DMSO-treated control cells infected with wild-type HIV-1 (0% inhibition) and DMSO-treated cells infected with Nef-defective HIV-1 (100% of the Nef-dependent effect)—see column 3. In addition, cell viability is measured in the TZM-bl cell line in the presence of each test compound and in the absence of HIV-1 infection, using the Cell Titer Blue cell viability assay (Promega; column 4).

[2] = tested on: TZM-bl cell line; assay type: cell-based; conditions: human, 1 μM
Experimental: as §1

[3] = biological target: HIV-1 NefNL4-3 (Human immunodeficiency virus type 1 group M subtype B, UniProt P03406, A33V/T15A/T51N/V11I); assay: Surface plasmon resonance binding to recombinant full-length Nef (NL4-3); conditions: for RU30/RUNef (extent of binding): response units at 30 μM relative to Nef immobilized on the SPR chip; for Nef NL4-3 Binding, SPR 1:1 or 2-site fitting KD1: 1:1 Langmuir fit where the KD2 cell says '1 to 1 fitting', else 2-site fit
[4] = 1.0 μM, TZM-bl reporter cell line, Table 4, read-out: % Infectivity Inhibition
[5] = 48 h, Table 1, TZM-bl cells, 1 μM, 48 h, 100% = Nef-defective HIV-1, read-out: HIV-1 Infectivity % Inhibition Norm. to Δ-Nef @ 1 μM
[6] = KD, M, Table 4, SPR fit 2-step induced fit, KD = koff/kon × koff2/(koff2 + kon2)
[7] = Nef NL4-3 Binding, SPR 2-state fitting KD, Table 1, 2-step induced-fit model
[8] = Table 4, 2-step induced fit, T = 1/koff2
[9] = read-out: Nef NL4-3 Binding, SPR 1:1 or 2-site fitting KD2, Table 1, 2-site fit, second component
[10] = KD, M, Table 4, SPR fit 1:1 Langmuir, KD = koff/kon
[11] = Table 4, 1:1 Langmuir fit, T = 1/koff

SMILES	inhibition at 1 µM [1, 4]	inhibition at 1 µM [1, 5]	% Cell Viability [2]	Percent Viability @ 1 μM (TZM-bl cells) [2]	Kd [3]	Kd [3, 6]	Kd [3, 7]	T, minutes (residence time) [3, 8]	Kd [3, 9]	RU30/RUNef (extent of binding) [3]	Nef NL4-3 Binding, SPR 1:1 or 2-site fitting KD1 ([3]; Table 1)	Kd [3, 10]	T, minutes (residence time) [3, 11]	Kd ([3]; Nef NL4-3 Binding, SPR 1:1 or 2-site fitting KD2, Table 1, 2-site fit, second component)
Cn1ccc(-c2nn(-c3nc4ccccc4[nH]3)c(O)c2CCc2ccc(F)cc2)cc1=O [Compound I-133, 4-[1-(1H-1,3-benzodiazol-2-y1)-4-[2-(4-fluorophenyl)ethyl]-5-hydroxy-1H-pyrazol-3-yl]-1-methyl-1,2-dihydropyridin-2-one]	16%	16%	100%	102.5%	779 nM	1.51 nM	1.51 nM	8.59E + 03 minutes	65300 nM	2.76E- 03				
Cn1cc(-c2nn(-c3nc4ccccc4[nH]3)c(O)c2CCc2ccc(F)cc2)ccc1=O [Compound I-134, 5-[1-(1H-1,3-benzodiazol-2-y1)-4-[2-(4-fluorophenyl)ethyl]-5-hydroxy-1H-pyrazol-3-yl]-1-methyl-1,2-dihydropyridin-2-one]		45.8%		100.5%							No Interaction			
Oc1c(CCc2ccc(F)cc2)c(-c2ccc(C(F)(F)F)nc2)nn1-c1nc2ccccc2[nH]1 [Compound I-135, 1-(1H-1,3-benzodiazol-2-yl)-4-[2-(4-fluorophenyl)ethyl]-3-[6-(trifluoromethyl)pyridin-3-yl]-1H-pyrazol-5-ol]	35.7%	35.7%	91.9%	91.9%	636 nM	14.7 nM	14.7 nM	1.47E + 03 minutes		2.87E- 03				
Oc1c(CCc2ccc(F)cc2)c(C2CCCO2)nn1-c1nc2ccccc2[nH]1 (centres unmarked) [Compound I-136, 1-(1H-1,3-benzodiazol-2-yl)-4-[2-(4-fluorophenyl)ethyl]-3-(oxolan-2-yl)-1H-pyrazol-5-ol]	26.5%	26.5%	99.9%	99.9%	160 nM	2460 nM	2460 nM	3.32E + 00 minutes	4770 nM	5.11E- 03				
Cn1cccc(CCc2c(-c3ccc(C(F)(F)F)cc3)nn(-c3nc4ccccc4[nH]3)c2O)c1=O [Compound I-137, 3-{2-[1-(1H-1,3-benzodiazol-2-yl)-5-hydroxy-3-[4-(trifluoromethyl)phenyl]-1H-pyrazol-4-yl]ethyl}-1-methyl-1,2-dihydropyridin-2-one]	0%	-1.4%	99.4%	99.4%	243 nM					1.02E- 03		243 nM	5.36E + 00 minutes	
COc1cccc(-c2nn(-c3nc4ccccc4[nH]3)c(O)c2CCc2ccc(F)cc2)n1 [Compound I-138, 1-(1H-1,3-benzodiazol-2-yl)-4-[2-(4-fluorophenyl)ethyl]-3-(6-methoxypyridin-2-yl)-1H-pyrazol-5-ol]		48.2%		95.8%	3960 nM									
Oc1c(CCC2CCOCC2)c(-c2ccc(C(F)(F)F)cc2)nn1-c1nc2ccccc2[nH]1 [Compound I-139, 1-(1H-1,3-benzodiazol-2-yl)-4-[2-(oxan-4-yl)ethyl]-3-[4-(trifluoromethyl)phenyl]-1H-pyrazol-5-ol]	44.1%	44.1%	80.8%	80.8%	556 nM	2070 nM	2070 nM	1.77E + 01 minutes		3.41E- 03				
Cc1ccc(-c2nn(-c3nc4ccccc4[nH]3)c(O)c2CCc2ccc(F)cc2)cn1 [Compound I-140, 1-(1H-1,3-benzodiazol-2-yl)-4-[2-(4-fluorophenyl)ethyl]-3-(6-methylpyridin-3-yl)-1H-pyrazol-5-ol]		57.3%		98.3%	915 nM									
Oc1c(CCn2nccn2)c(-c2ccc(C(F)(F)F)cc2)nn1-c1nc2ccccc2[nH]1 [Compound I-141, 1-(1H-1,3-benzodiazol-2-yl)-4-[2-(2H-1,2,3-triazol-2-yl)ethyl]-3-[4-(trifluoromethyl)phenyl]-1H-pyrazol-5-ol]		8.7%		99.5%							No Interaction			
Cc1nccn1CCc1c(-c2ccc(C(F)(F)F)cc2)nn(-c2nc3ccccc3[nH]2)c1O [Compound I-142, 1-(1H-1,3-benzodiazol-2-yl)-4-[2-(2-methyl-1H-imidazol-1-yl)ethyl]-3-[4-(trifluoromethyl)phenyl]-1H-pyrazol-5-ol]		-7.8%		100.2%	32800 nM									
Oc1c(CCn2cc(Cl)cn2)c(-c2ccc(C(F)(F)F)cc2)nn1-c1nc2ccccc2[nH]1 [Compound I-143, 1-(1H-1,3-benzodiazol-2-yl)-4-[2-(4-chloro-1H-pyrazol-1-yl)ethyl]-3-[4-(trifluoromethyl)phenyl]-1H-pyrazol-5-ol]	0%	-19.6%	98.9%	98.9%	426 nM					1.02E- 03		426 nM	1.75E + 01 minutes	
Oc1c(CCc2ccccn2)c(-c2ccc(C(F)(F)F)cn2)nn1-c1nc2ccccc2[nH]1 [Compound I-146, 1-(1H-1,3-benzodiazol-2-yl)-4-[2-(pyridin-2-yl)ethyl]-3-[5-(trifluoromethyl)pyridin-2-yl]-1H-pyrazol-5-ol]	5.7%	5.7%	98.5%	98.5%	1650 nM					6.42E- 04		1650 nM	3.67E + 00 minutes	
Oc1c(CCc2ccc(Br)cc2)c(-c2ccc(C(F)(F)F)cn2)nn1-c1nc2ccccc2[nH]1 [Compound I-147, 1-(1H-1,3-benzodiazol-2-yl)-4-[2-(4-bromophenyl)ethyl]-3-[5-(trifluoromethyl)pyridin-2-yl]-1H-pyrazol-5-ol]	59.3%	59.3%	97.6%	97.6%	0.0752 nM					2.11E- 03		0.0752 nM	4.30E + 04 minutes	
CS(=O)(=O)c1ccc(-c2nn(-c3nc4ccccc4[nH]3)c(O)c2CCC2CCOCC2)cc1 [Compound I-149, 1-(1H-1,3-benzodiazol-2-yl)-3-(4-methanesulfonylphenyl)-4-[2-(oxan-4-yl)ethyl]-1H-pyrazol-5-ol]		54.5%		98.5%	2330 nM									
Oc1c(CCC2CCOCC2)c(-c2cccc(F)c2)nn1-c1nc2ccccc2[nH]1 [Compound I-150, 1-(1H-1,3-benzodiazol-2-yl)-3-(3-fluorophenyl)-4-[2-(oxan-4-yl)ethyl]-1H-pyrazol-5-ol]	53.9%	53.9%	77.7%	77.7%		1070 nM	1070 nM	9.69E + 00 minutes		4.75E- 03				10400 nM
OCCc1c(-c2ccc(C(F)(F)F)cc2)nn(-c2nc3ccccc3[nH]2)c1O [Compound I-153, 1-(1H-1,3-benzodiazol-2-yl)-4-(2-hydroxyethyl)-3-[4-(trifluoromethyl)phenyl]-1H-pyrazol-5-ol]	0%	-20.1%	99.9%	99.9%	68.8 nM					9.06E- 04		68.8 nM	9.31E + 00 minutes	
CS(=O)(=O)c1ccc(-c2nn(-c3nc4ccccc4[nH]3)c(O)c2CCC2CCN(CC(F)(F)F)CC2)cc1 [Compound I-154, 1-(1H-1,3-benzodiazol-2-yl)-3-(4-methanesulfonylphenyl)-4-{2-[1-(2,2,2-trifluoroethyl)piperidin-4-yl]ethyl}-1H-pyrazol-5-ol]	45.4%	45.4%	69.3%	69.3%	28800 nM					4.50E- 03		28800 nM	6.80E + 00 minutes	
